According to article PMC4433340 (PLoS Neglected Tropical Diseases, 2015):

Key:
Assay type in all cases: cell-based, human
[1] = tested on: E-selectin, ICAM-1 and VCAM-1 expression on T. cruzi-infected EA.hy926 and HUVEC cells; experiment: Endothelial cell adhesion molecule surface expression by flow cytometry / immunofluorescence; details: EA.hy926
Protocol: Then, cells were infected with trypomastigotes at a MOI of 10 and incubated for 16 hours. Cells were detached with 1X EDTA-PBS at 0.5 mM. The harvested cells were washed with cold PBS and centrifuged at 800 x g for 5 minutes. Then, cells were washed with flow cytometry buffer three times. 100 μL of cell suspensions were incubated for 45 min at 4°C in the dark with mouse monoclonal anti- human E-selectin (5 μL undiluted), ICAM-1(3 μL undiluted), and VCAM-1 (1 μL undiluted) that were conjugated with PE, FITC and APC, respectively (BioLegend, USA). Cell suspensions were analyzed by flow cytometry using a FACSAria-III flow cytometer (BD Biosciences, USA). A homogeneous cell population was selected by size vs. granularity in log scale for these two conditions.
2x10^4 EA.hy926 cells/slide were seeded in Lab-Tek II Chamber Slide^TM (ThermoScientific, USA) and allowed to adhere overnight. […] After 16 hours of infection, cells were fixed in 4% formaldehyde–0.1 M phosphate buffer (pH 7.3) for 10 min. Cells were blocked with 3% bovine serum albumin for 1 hour. Then, cells were incubated with monoclonal antibodies against E-selectin (1:100), VCAM-1 (1:250) and ICAM-1 (1:100) (from Abcam, UK) overnight at 4°C. The samples were washed with PBS and incubated with anti-rabbit IgG that had been conjugated with fluorescein (1:100) from Sigma-Aldrich for 1 h. Finally, nuclei were stained with DAPI for 5 minutes and mounted with Dako Fluorescence Mounting (Dako, USA). The cells were photographed using a Nikon Eclipse 400 fluorescence microscope (Nikon, Japan), and images were analyzed by mean intensity using ImageJ software (ImageJ 1.47v).

[2] = tested on: NF-κB pathway (p-IKK, p-IκB) in T. cruzi-infected EA.hy926 cells; experiment: IKK and IκB phosphorylation by Western blot; details: exogenous 15-epi-LXA4 for 24 hours before T. cruzi 1 hour
Protocol: 5x10^5 endothelial cells were rinsed once with PBS and scraped. Proteins were extracted into 100 μL RIPA buffer plus a protease and phosphatase inhibitor cocktail (Radio-Immunoprecipitation Assay; Millipore Corporation, USA) at 4°C. Total protein was quantified with the Lowry assay. Samples in loading buffer (10% SDS, 50% glycerol, 0.5 M Tris, 0.1% bromophenol blue, and 1 M dithiothreitol, pH 6.8) were electrophoretically separated by 10% SDS-PAGE and transferred to a nitrocellulose membrane. Nitrocellulose membranes were incubated with blocking solution (5% w/v nonfat dry milk, 0.1% Tween-20 in Tris-buffered saline) at room temperature for 1 hour. Then, the membranes were incubated at 4°C overnight with 1 mL solution of primary antibodies against E-selectin (1:1000) and α-Tubulin (1:10.000) from Sigma-Aldrich, ICAM-1 (1:2000) and VCAM-1 (1:1000) from Abcam, 7 ml solution of p-IKK (1:1000), IKK (1:1000), p-IκB (1:1000) and IκB (1:1000) from Cell signaling (Cell Signaling Technologies, USA). Bound antibodies were detected with horseradish peroxidase-conjugated secondary antibodies and visualized by Lumminata forte (Millipore). The nitrocellulose was stripped between reprobes using Mild stripping (Millipore) for 10 minutes. Developed films were scanned, and band densitometry was analyzed using ImageJ software (ImageJ 1.47v).

[3] = tested on: NF-κB p65 in T. cruzi-infected EA.hy926 cells; experiment: Nuclear p65 localization by confocal microscopy; details: 100 nM 15-epi-LXA4 before T. cruzi 1 hour
Protocol: 2x10^4 EA.hy926 cells were seeded in Lab-Tek II Chamber Slides^TM for 12 hours. Cells were fixed in 3.7% formaldehyde–0.1 M phosphate buffer (pH 7.3) for 10 min. They were then washed with cytoskeletal buffer followed by permeabilization for 5 min with Triton-X100 0.5%. Cells were blocked with 3% bovine serum albumin for 1 hour. […] The samples were washed with PBS and incubated with anti-rabbit IgG conjugated with fluorescein (1:100) from Sigma-Aldrich for 1 hour. Finally, nuclei were stained with DAPI for 5 minutes and mounted in Dako fluorescence mounting media. The cells were photographed and ten pictures per well were obtained; images were analyzed using ImageJ software (ImageJ 1.47v).

Compound	Endothelial adhesion molecule expression ([1]; 1 and 10 nM 15-epi-LXA4 for 24 hours before 16 hours infection)	IKK-IκB pathway activity [2]	Nuclear p65 migration [3]	ICAM expression in presence of simvastatin plus 5-lipoxygenase inhibitor ([1]; 5 μM simvastatin with AA-861 (50 μM) for 24 hours before 16 hours infection)
CCCCC[C@@H](O)/C=C/C=C\C=C\C=C\[C@@H](O)[C@@H](O)CCCC(=O)O [15-epi-LXA4, 15-epi-lipoxin A4]	reduced endothelial adhesion molecule expression	decreased IKK-IκB pathway activity in a dose-dependent fashion	decreased nuclear p65 migration	
CC1=C(C)C(=O)C(CCCCC#CCCCC#CCO)=C(C)C1=O [AA-861, 2-(12-hydroxydodeca-5,10-diynyl)-3,5,6-trimethyl-p-benzoquinone]				ICAM expression was restored
